Key:
NOMO1 [1] = assay: cell viability relative to DMSO control; higher = less cytotoxic; details: 48 h
How it was run: (§1)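 NOMO1 or SEM cells were plated at 500 cells/well and P12-Ichikawa cells at 1000 cells/well in 1536-well plates (5 μl), after each leukemia line had been adapted for at least four passages in each medium. Pin dosing delivered library compounds in DMSO at 11 threefold concentrations, 47 μM to 0.79 nM. CellTiter-Glo One luminescence was read after 48 h at 37°C. Viability is reported as a per-plate percentage of DMSO wells, with cell-free wells as background.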

P12-Ichikawa [2] = assay: as above; details: RPMI 5 mM glucose + 10% dialyzed FBS, 48 h
How it was run: as §1

SEM cells [3] = assay: as above; details: 48 h
How it was run: as §1

NOMO1 [4] = assay: AUC of viability dose-response curve (% viability x log10 dose units); higher = less sensitive; details: 48 h
How it was run: (§2)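 Leukemia cells adapted to each medium were seeded at 500 or 1000 cells/well in 1536-well plates and dosed with library compounds in DMSO at 11 threefold doses from 47 μM to 0.79 nM for 48 h at 37°C. CellTiter-Glo One luminescence was normalised per plate to DMSO and cell-free wells, then fitted with a four-parameter log-logistic model over log10 doses. Area under the curve was taken from this fit by the trapezoidal rule, with curves above full viability scaled and curves failing quality control removed.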

P12-Ichikawa [5] = assay: as above; details: 48 h
How it was run: as §2

SEM cells [6] = assay: as above; details: 48 h
How it was run: as §2

[7] = RPMI 5 mM glucose + 10% FBS, 0.000781 µM
[8] = RPMI 5 mM glucose + 10% FBS, 0.00234 µM
[9] = RPMI 5 mM glucose + 10% FBS, 0.00702 µM
[10] = RPMI 5 mM glucose + 10% FBS, 0.0211 µM
[11] = RPMI 5 mM glucose + 10% FBS, 0.0632 µM
[12] = RPMI 5 mM glucose + 10% FBS, 0.19 µM
[13] = RPMI 5 mM glucose + 10% FBS, 0.569 µM
[14] = RPMI 5 mM glucose + 10% FBS, 1.71 µM
[15] = RPMI 5 mM glucose + 10% FBS, 5.12 µM
[16] = RPMI 5 mM glucose + 10% FBS, 15.4 µM
[17] = RPMI 5 mM glucose + 10% FBS, 46.1 µM
[18] = RPMI 5 mM glucose + 10% dialyzed FBS

SMILES: C[C@H]([C@H](O)CCC(C)(C)O)[C@H]1CC[C@@]2(O)C/3=C/C(=O)[C@@H]4C[C@@H](O)[C@@H](O)C[C@]4(C)[C@H]3CC[C@]12C
- cell viability (NOMO1 [1]; [7]): 112%
- cell viability (NOMO1 [1]; [8]): 115%
- cell viability (NOMO1 [1]; [9]): 118%
- cell viability (NOMO1 [1]; [10]): 107%
- cell viability (NOMO1 [1]; [11]): 106%
- cell viability (NOMO1 [1]; [12]): 112%
- cell viability (NOMO1 [1]; [13]): 121%
- cell viability (NOMO1 [1]; [14]): 104%
- cell viability (NOMO1 [1]; [15]): 119%
- cell viability (NOMO1 [1]; [16]): 109%
- cell viability (NOMO1 [1]; [17]): 104%
- cell viability (NOMO1 [1]; RPMI 5 mM glucose + 10% dialyzed FBS, 0.000781 µM): 122%
- cell viability (NOMO1 [1]; RPMI 5 mM glucose + 10% dialyzed FBS, 0.00234 µM): 127%
- cell viability (NOMO1 [1]; RPMI 5 mM glucose + 10% dialyzed FBS, 0.00702 µM): 125%
- cell viability (NOMO1 [1]; RPMI 5 mM glucose + 10% dialyzed FBS, 0.0211 µM): 137%
- cell viability (NOMO1 [1]; RPMI 5 mM glucose + 10% dialyzed FBS, 0.0632 µM): 112%
- cell viability (NOMO1 [1]; RPMI 5 mM glucose + 10% dialyzed FBS, 0.19 µM): 121%
- cell viability (NOMO1 [1]; RPMI 5 mM glucose + 10% dialyzed FBS, 0.569 µM): 123%
- cell viability (NOMO1 [1]; RPMI 5 mM glucose + 10% dialyzed FBS, 1.71 µM): 131%
- cell viability (NOMO1 [1]; RPMI 5 mM glucose + 10% dialyzed FBS, 5.12 µM): 125%
- cell viability (NOMO1 [1]; RPMI 5 mM glucose + 10% dialyzed FBS, 15.4 µM): 131%
- cell viability (NOMO1 [1]; RPMI 5 mM glucose + 10% dialyzed FBS, 46.1 µM): 117%
- cell viability (P12-Ichikawa [2]; 0.000781 µM): 109%
- cell viability (P12-Ichikawa [2]; 0.00234 µM): 125%
- cell viability (P12-Ichikawa [2]; 0.00702 µM): 121%
- cell viability (P12-Ichikawa [2]; 0.0211 µM): 124%
- cell viability (P12-Ichikawa [2]; 0.0632 µM): 131%
- cell viability (P12-Ichikawa [2]; 0.19 µM): 122%
- cell viability (P12-Ichikawa [2]; 0.569 µM): 119%
- cell viability (P12-Ichikawa [2]; 1.71 µM): 121%
- cell viability (P12-Ichikawa [2]; 5.12 µM): 120%
- cell viability (P12-Ichikawa [2]; 15.4 µM): 107%
- cell viability (P12-Ichikawa [2]; 46.1 µM): 113%
- cell viability (SEM cells [3]; HPLM + 10% dialyzed FBS, 0.000781 µM): 111%
- cell viability (SEM cells [3]; HPLM + 10% dialyzed FBS, 0.00234 µM): 119%
- cell viability (SEM cells [3]; HPLM + 10% dialyzed FBS, 0.00702 µM): 102%
- cell viability (SEM cells [3]; HPLM + 10% dialyzed FBS, 0.0211 µM): 122%
- cell viability (SEM cells [3]; HPLM + 10% dialyzed FBS, 0.0632 µM): 103%
- cell viability (SEM cells [3]; HPLM + 10% dialyzed FBS, 0.19 µM): 109%
- cell viability (SEM cells [3]; HPLM + 10% dialyzed FBS, 0.569 µM): 110%
- cell viability (SEM cells [3]; HPLM + 10% dialyzed FBS, 1.71 µM): 112%
- cell viability (SEM cells [3]; HPLM + 10% dialyzed FBS, 5.12 µM): 108%
- cell viability (SEM cells [3]; HPLM + 10% dialyzed FBS, 15.4 µM): 101%
- cell viability (SEM cells [3]; HPLM + 10% dialyzed FBS, 46.1 µM): 106%
- cell viability (SEM cells [3]; [7]): 132%
- cell viability (SEM cells [3]; [8]): 104%
- cell viability (SEM cells [3]; [9]): 113%
- cell viability (SEM cells [3]; [10]): 125%
- cell viability (SEM cells [3]; [11]): 115%
- cell viability (SEM cells [3]; [12]): 113%
- cell viability (SEM cells [3]; [13]): 119%
- cell viability (SEM cells [3]; [14]): 123%
- cell viability (SEM cells [3]; [15]): 125%
- cell viability (SEM cells [3]; [16]): 110%
- cell viability (SEM cells [3]; [17]): 98%
- AUC of viability dose-response curve (NOMO1 [4]; HPLM + 10% dialyzed FBS): 470
- AUC of viability dose-response curve (NOMO1 [4]; RPMI 5 mM glucose + 10% FBS): 468
- AUC of viability dose-response curve (NOMO1 [4]; [18]): 476
- AUC of viability dose-response curve (P12-Ichikawa [5]; HPLM + 10% dialyzed FBS): 460
- AUC of viability dose-response curve (P12-Ichikawa [5]; RPMI 5 mM glucose + 10% FBS): 452
- AUC of viability dose-response curve (P12-Ichikawa [5]; [18]): 470
- AUC of viability dose-response curve (SEM cells [6]; HPLM + 10% dialyzed FBS): 461
- AUC of viability dose-response curve (SEM cells [6]; RPMI 5 mM glucose + 10% FBS): 458
- AUC of viability dose-response curve (SEM cells [6]; [18]): 474

Source: the supplement of paper PMC11451515
